Assay results reported in US9145375B2, “Quinazolinone compounds” (PRANA BIOTECHNOLOGY LIMITED, priority 2008, dated 2015).

Legend:
Format in all cases: in vitro ADME
CYP1A2 = target: T1, CYP1A2 (Homo sapiens, UniProt P05177); assay: CYP450 isoform inhibition, recombinant enzymes, analysis by LCMS: CYP1A2
T1 construct: using a specific substrate approach in human liver microsomes; from tissue; host or cells: human liver microsomes
T1 sequence (P05177 1-516): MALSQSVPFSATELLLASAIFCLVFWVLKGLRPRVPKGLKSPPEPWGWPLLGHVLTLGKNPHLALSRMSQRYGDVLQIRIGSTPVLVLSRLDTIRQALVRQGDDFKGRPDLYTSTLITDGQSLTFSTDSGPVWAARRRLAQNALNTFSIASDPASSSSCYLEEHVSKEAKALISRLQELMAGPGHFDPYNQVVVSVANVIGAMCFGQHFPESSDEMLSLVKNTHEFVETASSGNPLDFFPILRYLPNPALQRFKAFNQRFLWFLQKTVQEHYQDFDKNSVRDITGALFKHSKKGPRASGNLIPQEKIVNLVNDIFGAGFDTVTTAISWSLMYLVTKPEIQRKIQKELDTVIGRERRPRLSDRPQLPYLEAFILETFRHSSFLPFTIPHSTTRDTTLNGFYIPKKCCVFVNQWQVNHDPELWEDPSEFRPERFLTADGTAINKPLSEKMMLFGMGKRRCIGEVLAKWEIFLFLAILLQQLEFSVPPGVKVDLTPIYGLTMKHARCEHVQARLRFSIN
Description: (§1) CYP450 Isoform Inhibition
(§2) Microsomes containing individual recombinant human CYP450 enzymes (Supersomes™) were incubated in the presence of a fixed concentration of a probe substrate that forms a fluorescent metabolite upon CYP450-mediated metabolism.
(§3) A known inhibitor of each CYP450 isoform was included in each assay as a positive control and its IC50 was compared to literature values for acceptance of the assay.
(§4) The inherent fluorescence of the test compound was examined under the specific assay conditions for each isoform before and after the fluorometric assay to identify any compound-specific interference due to the parent compound or metabolic products. If the background fluorescence in these samples increased due to compound-specific interference, then the CYP450 inhibition samples were quantified using LC/MS assay.

CYP2C19 = target: T2, CYP2C19 (Homo sapiens, UniProt P33261); assay: CYP450 isoform inhibition, recombinant enzymes, analysis by LCMS: CYP2C19
T2 construct: using a specific substrate approach in human liver microsomes; from tissue; host or cells: human liver microsomes
T2 sequence (P33261 whole entry, canonical isoform): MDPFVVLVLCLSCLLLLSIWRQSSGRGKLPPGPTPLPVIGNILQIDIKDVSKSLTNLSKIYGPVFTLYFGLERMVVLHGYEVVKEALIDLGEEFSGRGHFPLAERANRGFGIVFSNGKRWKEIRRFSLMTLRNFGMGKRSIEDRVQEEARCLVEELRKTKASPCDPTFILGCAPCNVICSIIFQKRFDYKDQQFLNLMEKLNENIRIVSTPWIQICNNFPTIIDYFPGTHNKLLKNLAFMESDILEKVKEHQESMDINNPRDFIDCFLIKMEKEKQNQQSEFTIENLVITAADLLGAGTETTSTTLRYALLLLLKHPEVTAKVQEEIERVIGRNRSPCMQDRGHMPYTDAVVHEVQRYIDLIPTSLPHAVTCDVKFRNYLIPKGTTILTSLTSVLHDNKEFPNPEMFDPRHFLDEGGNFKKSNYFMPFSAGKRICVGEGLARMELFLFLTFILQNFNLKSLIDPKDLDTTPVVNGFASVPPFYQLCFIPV
Description: as §1, §2, §3, §4

CYP2E1 = CYP2E1 (Homo sapiens, UniProt P05181); assay: CYP450 inhibition, specific substrate approach in human liver microsomes: CYP2E1; design: using a specific substrate approach in human liver microsomes; from tissue; host or cells: human liver microsomes
Sequence of CYP2E1 (P05181 whole entry, canonical isoform): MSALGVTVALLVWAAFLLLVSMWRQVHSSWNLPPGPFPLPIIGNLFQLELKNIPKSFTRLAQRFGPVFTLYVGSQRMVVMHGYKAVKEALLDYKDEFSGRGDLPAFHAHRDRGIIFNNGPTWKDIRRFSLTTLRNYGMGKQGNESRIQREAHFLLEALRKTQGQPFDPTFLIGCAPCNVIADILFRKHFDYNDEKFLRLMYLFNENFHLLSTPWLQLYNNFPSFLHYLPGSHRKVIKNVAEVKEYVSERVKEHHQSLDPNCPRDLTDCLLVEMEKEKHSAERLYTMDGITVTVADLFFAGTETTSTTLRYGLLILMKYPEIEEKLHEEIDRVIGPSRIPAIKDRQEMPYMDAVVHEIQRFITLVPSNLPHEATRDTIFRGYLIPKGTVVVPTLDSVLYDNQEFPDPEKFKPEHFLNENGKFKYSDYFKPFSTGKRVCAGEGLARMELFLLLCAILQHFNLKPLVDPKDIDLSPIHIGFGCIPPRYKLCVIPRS
Description: CYP450 Isoform Inhibition Using a Specific Substrate Approach
The present study is a “Tier 2” screen to assess potential enzyme inhibition at a test compound concentration of 20 μM using a specific substrate approach in human liver microsomes.
The substrate specific enzyme inhibition study relies on the formation of a metabolite that is mediated by a specific CYP450 isoform using human liver microsomes. In the current study, the following reactions were monitored to assess interactions with specific CYP450 isoforms. A known inhibitor of each isoform was included in each assay as a positive control. The following IC50 values have been reported in the literature using equivalent assay conditions for each CYP450 isoform:
The reaction was initiated by the addition of an NADPH-regenerating system and was quenched by the addition of acetonitrile prior to determining the concentration (and apparent rate of formation) of the specific metabolite by LC/MS.
The IC50 was deemed to be the concentration at which there was a 50% reduction in the amount of metabolite formed, relative to the maximal extent of formation.

SMILES | IC50 (CYP1A2) | IC50 (CYP2C19) | IC50 (CYP2E1)
CNCc1nc2c(O)c(Cl)cc(Cl)c2c(=O)n1C [Compound F4161] | 25.7 µM | > 40 µM | 
CCn1c(CN(C)C)nc2c(O)c(Cl)cc(Cl)c2c1=O.Cl [Compound F4268] |  |  | > 20 µM
